Results taken from patent US12612410B2 (CHILDREN'S HOSPITAL MEDICAL CENTER, priority 2020, dated 2026).

Target: T1, FLT3 ITD, F691L (Homo sapiens, UniProt P36888, F691L, form not given)
T1 construct: fused on or other part: DNA tag for qPCR detection (T7 phage fusion or DNA-tagged protein from HEK-293 cells)
T1 sequence (P36888 1-993 F691L): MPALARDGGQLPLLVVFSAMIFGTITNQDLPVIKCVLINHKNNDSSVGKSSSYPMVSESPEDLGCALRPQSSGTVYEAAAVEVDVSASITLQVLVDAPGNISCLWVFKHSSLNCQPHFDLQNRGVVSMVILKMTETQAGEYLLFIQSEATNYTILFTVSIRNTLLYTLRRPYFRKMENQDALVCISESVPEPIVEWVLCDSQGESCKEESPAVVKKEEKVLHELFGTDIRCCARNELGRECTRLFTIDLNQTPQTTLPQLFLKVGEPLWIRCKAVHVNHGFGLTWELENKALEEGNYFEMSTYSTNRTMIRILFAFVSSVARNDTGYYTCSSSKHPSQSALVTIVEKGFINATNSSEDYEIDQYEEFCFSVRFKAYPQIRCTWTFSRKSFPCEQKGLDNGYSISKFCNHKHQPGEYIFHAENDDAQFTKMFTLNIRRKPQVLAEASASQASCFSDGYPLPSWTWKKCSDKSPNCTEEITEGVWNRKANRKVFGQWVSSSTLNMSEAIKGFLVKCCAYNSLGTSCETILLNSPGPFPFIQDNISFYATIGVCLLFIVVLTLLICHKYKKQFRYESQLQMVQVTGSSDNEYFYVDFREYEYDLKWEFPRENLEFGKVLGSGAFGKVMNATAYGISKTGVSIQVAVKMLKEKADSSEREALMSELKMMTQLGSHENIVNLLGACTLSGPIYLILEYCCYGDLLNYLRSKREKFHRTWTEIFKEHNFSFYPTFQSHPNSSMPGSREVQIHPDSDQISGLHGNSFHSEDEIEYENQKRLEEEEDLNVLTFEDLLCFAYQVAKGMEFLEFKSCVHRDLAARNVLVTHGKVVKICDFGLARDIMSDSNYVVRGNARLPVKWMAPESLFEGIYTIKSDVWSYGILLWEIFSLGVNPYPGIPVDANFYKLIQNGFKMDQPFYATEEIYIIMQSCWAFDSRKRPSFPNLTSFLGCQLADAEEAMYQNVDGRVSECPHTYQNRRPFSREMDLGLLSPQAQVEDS
Experiment: DiscoverX KINOMEscan competition binding, FLT3 ITD, F691L
From the text: Kinase binding data were obtained for various exemplary compounds prepared according to Examples 1-24 using the DiscoverX KINOMVIEscan® active site-directed competition binding site-directed assay protocol described below. […] As a result, the data report thermodynamic interaction affinities (Kd values), rather than IC50 values that are dependent on ATP concentrations. The assay uses a DNA-tagged version of the protein kinase, and an immobilized ligand bound to a solid support. Compounds that directly or indirectly prevent kinase binding to the immobilized ligand reduce the amount of kinase captured on the solid support, which is detected using an ultra-sensitive qPCR method. Affinity constants reported from the assay have been reported to be independent of the immobilized ligand used that is coupled to the solid support (See supplemental information in Fabian, M. A. et. al., (2005) Nat. Biotechnol. 23, 329-336; Wodicka, L. M. et. al., (2010) Chem. Biol. 17, 1241-1249.)
Kinase-tagged T7 phage strains were prepared in an E. coli host derived from the BL21 strain. E. coli were grown to log-phase and infected with T7 phage and incubated with shaking at 32° C. until lysis. The lysates were centrifuged and filtered to remove cell debris. The remaining kinases were produced in HEK-293 cells and subsequently tagged with DNA for qPCR detection. Streptavidin-coated magnetic beads were treated with biotinylated small molecule ligands for 30 minutes at room temperature to generate affinity resins for kinase assays. The liganded beads were blocked with excess biotin and washed with blocking buffer (SeaBlock (Pierce), 1% BSA, 0.05% Tween 20, 1 mM DTT) to remove unbound ligand and to reduce non-specific binding. Binding reactions were assembled by combining kinases, liganded affinity beads, and test compounds in 1× binding buffer (20% SeaBlock, 0.17×PBS, 0.05% Tween 20, 6 mM DTT). Test compounds were prepared as 111× stocks in 100% DMSO. Kds were determined using an 11-point 3-fold compound dilution series with three DMSO control points. All compounds for Kd measurements are distributed by acoustic transfer (non-contact dispensing) in 100% DMSO. The compounds were then diluted directly into the assays such that the final concentration of DMSO was 0.9%. All reactions were performed in polypropylene 384-well plates. Each was a final volume of 0.02 mL. The assay plates were incubated at room temperature with shaking for 1 hour and the affinity beads were washed with wash buffer (1×PBS, 0.05% Tween 20). The beads were then re-suspended in elution buffer (1×PBS, 0.05% Tween 20, 0.5 μM nonbiotinylated affinity ligand) and incubated at room temperature with shaking for 30 minutes. The kinase concentration in the eluates was measured by qPCR.
Binding constants (Kds) were calculated with a standard dose-response curve using the Hill equation. The Hill Slope was set to −1. Curves were fitted using a non-linear least square fit with the Levenberg-Marquardt algorithm.

Row | Kd [nM] | SMILES
1 | 0.11 | CC1(c2cn3c(-c4cccc(N[C@H]5CNC[C@@H]5F)n4)cnc3cn2)CC1 [Compound 1, N-((3S,4S)-4-fluoropyrrolidin-3-yl)-6-(6-(1-methylcyclopropyl)imidazo[1,2-a]pyrazin-3-yl)pyridin-2-amine]
2 | 0.3 | FC(F)(F)C1(c2cn3c(-c4cccc(N[C@@H]5CCNC5)n4)cnc3cn2)CC1 [Compound 10, (R)-N-(pyrrolidin-3-yl)-6-(6-(1-(trifluoromethyl)cyclopropyl)imidazo[1,2-a]pyrazin-3-yl)pyridin-2-amine]
3 | 0.32 | FC(F)c1cn2c(-c3cccc(N[C@H]4CNC[C@@H]4F)n3)cnc2cn1 [Compound 16, 6-(6-(difluoromethyl)imidazo[1,2-a]pyrazin-3-yl)-N-((3S,4S)-4-fluoropyrrolidin-3-yl)pyridin-2-amine]
4 | 0.49 | CC(C)(O)c1cn2c(-c3cccc(N[C@H]4CNCC[C@@H]4F)n3)cnc2cn1 [Compound 31, 2-(3-(6-(((3S,4S)-4-fluoropiperidin-3-yl)amino)pyridin-2-yl)imidazo[1,2-a]pyrazin-6-yl)propan-2-ol]
5 | 0.062 | Cn1cc(-c2cn3c(-c4cccc(N[C@H]5CNC[C@@H]5F)n4)cnc3cn2)cn1 [Compound 52, N-((3S,4S)-4-fluoropyrrolidin-3-yl)-6-(6-(1-methyl-1H-pyrazol-4-yl)imidazo[1,2-a]pyrazin-3-yl)pyridin-2-amine]

The remaining lines, values behind:

Row | SMILES | Kd [nM]
6 | CC1(c2cn3c(-c4cccc(N[C@@H]5CCNC5)n4)cnc3cn2)CC1 [Compound 3, (R)-6-(6-(1-methylcyclopropyl)imidazo[1,2-a]pyrazin-3-yl)-N-(pyrrolidin-3-yl)pyridin-2-amine] | 0.071
7 | CC1(c2cn3c(-c4cccc(N[C@H]5CNCC56CC6)n4)cnc3cn2)CC1 [Compound 5, (R)-N-(6-(6-(1-methylcyclopropyl)imidazo[1,2-a]pyrazin-3-yl)pyridin-2-yl)-5-azaspiro[2.4]heptan-7-amine] | 0.023
8 | FC(F)c1cn2c(-c3cccc(N[C@H]4CNCC[C@@H]4F)n3)cnc2cn1 [Compound 25, 6-(6-(difluoromethyl)imidazo[1,2-a]pyrazin-3-yl)-N-((3S,4S)-4-fluoropiperidin-3-yl)pyridin-2-amine] | 0.074
9 | CC(C)(O)c1cn2c(-c3cccc(N[C@@H]4CCCNC4)n3)cnc2cn1 [Compound 30, (R)-2-(3-(6-(piperidin-3-ylamino)pyridin-2-yl)imidazo[1,2-a]pyrazin-6-yl)propan-2-ol] | 1.8
10 | FC(F)(F)COc1cn2c(-c3cccc(N[C@@H]4CCNC4)n3)cnc2cn1 [Compound 38, (R)-N-(pyrrolidin-3-yl)-6-(6-(2,2,2-trifluoroethoxy)imidazo[1,2-a]pyrazin-3-yl)pyridin-2-amine] | 0.75
11 | F[C@H]1CNC[C@@H]1Nc1cccc(-c2cnc3cnc(C4CC4)cn23)n1 [Compound 50, 6-(6-cyclopropylimidazo[1,2-a]pyrazin-3-yl)-N-((3S,4S)-4-fluoropyrrolidin-3-yl)pyridin-2-amine] | 0.1
